Test results: US4864023A, “Pyrido(3,2,1-IJ)-1,3,4-benzoxadiazine derivatives” (priority 1988, dated 1989)
In brackets after ≈: the same amount, converted by molar mass. Read-outs that look alike come from different tables or passages of the source.

How the values were obtained:
[1] = test system: Bordetella bronchiseptica ATCC 4617; experiment: in vitro antibacterial activity, standard agar dilution method; format: cell-based; settings: ATCC4617, aerobic, read-out: minimum inhibitory concentration (MIC)
[2] = test system: Proteus vulgaris OX19 ATCC 6898; experiment: as above; format: cell-based; settings: ATCC6898, aerobic, read-out: minimum inhibitory concentration (MIC)
[3] = test system: Staphylococcus aureus Smith; experiment: as above; format: cell-based; settings: Staphylococcus aureus Smith; aerobic; agar dilution; read-out: minimum inhibitory concentration (MIC)
[4] = test system: Enterobacter cloacae NR 2946; experiment: as above; format: cell-based; settings: NR2946, aerobic, read-out: minimum inhibitory concentration (MIC)
[5] = test system: Peptococcus prevotii ATCC 9321; experiment: as above; format: cell-based; settings: Anaerococcus prevotii, ATCC9321, anaerobic, read-out: minimum inhibitory concentration (MIC)
[6] = test system: Myoplasma hominis NR 2952; experiment: as above; format: cell-based; settings: read-out: minimum inhibitory concentration (MIC)
[7] = test system: Staphylococcus aureus NR 2855; experiment: as above; format: cell-based
[8] = test system: Citrobacter freundii IFO 12681; experiment: as above; format: cell-based; settings: IFO12681, aerobic, read-out: minimum inhibitory concentration (MIC)
[9] = test system: Escherichia coli NR 2630; experiment: as above; format: cell-based; settings: NR2630; Escherichia coli NR 2630; aerobic; agar dilution; read-out: minimum inhibitory concentration (MIC)
[10] = test system: Serratia marcescens IFO 12648; experiment: as above; format: cell-based; settings: IFO12648, aerobic, read-out: minimum inhibitory concentration (MIC)
[11] = acute toxicity by oral administration; settings: mouse, in vivo, po
Description: The acute toxicity of these compounds was examined by oral administration in ICR mice.

[12] = test system: Bacteroides fragilis NR 2583; experiment: in vitro antibacterial activity, standard agar dilution method; format: cell-based; settings: NR2583, anaerobic, read-out: minimum inhibitory concentration (MIC)
[13] = test system: Clostridium botulinum NR 26ll; experiment: microbe, parasite or virus in culture; format: cell-based; settings: NR26LL, read-out: minimum inhibitory concentration (MIC)
[14] = test system: Staphylococcus aureus FDA 209P JC-1; experiment: in vitro antibacterial activity, standard agar dilution method; format: cell-based; settings: FDA209P, read-out: minimum inhibitory concentration (MIC)
[15] = test system: Bacteroides fragilis NR 2579; experiment: as above; format: cell-based; settings: NR2579, anaerobic, read-out: minimum inhibitory concentration (MIC)
[16] = test system: Alcaligenes faecalis IFO 13111; experiment: as above; format: cell-based; settings: IFO13111, aerobic, read-out: minimum inhibitory concentration (MIC)
[17] = test system: Peptococcus variabilis ATCC 14955; experiment: as above; format: cell-based; settings: anaerobic, read-out: minimum inhibitory concentration (MIC)
[18] = test system: Staphylococcus epidermidis IFO 12993; experiment: as above; format: cell-based; settings: IFO12993, aerobic, read-out: minimum inhibitory concentration (MIC)
[19] = test system: Pseudomonas aeruginosa 4au542; experiment: in vivo therapeutic efficacy, lethal systemic infection in mice; settings: po, 120 h, P. aeruginosa 4au542 i.p. infection, ICR mice, p.o. at time of injection, mortality 5 days, read-out: 50% effective dose (ED50)
Description: (§1) The in vivo antibacterial activities of pyrido[3,2,1-ij]-1,3,4-benzoxadiazine derivatives prepared by Example 5, Example 30, Example 65 and Example 66 as mentioned below were tested against lethal infection of Escherichia coli ML4707, Pseudomonas aeruginosa 4au542 and Streptococcus pneumoniae 6-001. ICR mice weighing about 20 g were infected by intraperitoneal injection of a corresponding bacterial suspension. The test compounds were administered orally or subcutaneously at the time of injection. […] The respective 50% effective dose (ED50, mg/kg) which protects 50% of the animals from death caused by infection, is shown in Table 3.

[20] = test system: Escherichia coli ML4707; experiment: as above; settings: Escherichia coli, 120 h, E. coli ML4707 i.p. infection, ICR mice, mortality 5 days, read-out: 50% effective dose (ED50)
Description: as §1

[21] = test system: Streptococcus pneumoniae 6-001; experiment: as above; settings: Streptococcus pneumoniae, 6001, po, 120 h; S. pneumoniae 6-001 i.p. infection, ICR mice, p.o. at time of injection, mortality 5 days; read-out: 50% effective dose (ED50)
Description: as §1

[22] = test system: Staphylococcus epidermidis NR 2942; experiment: in vitro antibacterial activity, standard agar dilution method; format: cell-based; settings: NR2942, aerobic, read-out: minimum inhibitory concentration (MIC)
[23] = test system: Bacillus subtilis PCI 219; experiment: as above; format: cell-based; settings: PCI219, aerobic, read-out: minimum inhibitory concentration (MIC)
[24] = test system: Salmonella typhimurium IFO 12529; experiment: as above; format: cell-based; settings: Salmonella enterica, aerobic, read-out: minimum inhibitory concentration (MIC)
[25] = test system: Propionibacterium acnes ATCC 11828; experiment: as above; format: cell-based; settings: Cutibacterium acnes, ATCC11828, anaerobic, read-out: minimum inhibitory concentration (MIC)
[26] = test system: Escherichia coli NIHJ JC-2; experiment: as above; format: cell-based; settings: NIHJJC2, aerobic, read-out: minimum inhibitory concentration (MIC)
[27] = test system: Bacteroides distasonis NR 2578; experiment: as above; format: cell-based; settings: Parabacteroides distasonis, NR2578, anaerobic, read-out: minimum inhibitory concentration (MIC)
[28] = test system: Enterobacter aerogenes NR 2945; experiment: as above; format: cell-based; settings: Klebsiella aerogenes, NR2945, aerobic, read-out: minimum inhibitory concentration (MIC)
[29] = test system: Bifidobacterium adolescentis ATCC 15703; experiment: as above; format: cell-based; settings: ATCC15703, anaerobic, read-out: minimum inhibitory concentration (MIC)
[30] = test system: Pseudomonas aeruginosa A3; experiment: as above; format: cell-based; settings: aerobic, read-out: minimum inhibitory concentration (MIC)
[31] = ML4707, po, p.o. at time of injection
[32] = ML4707, sc, s.c. at time of injection

| SMILES | MIC [1] [mg/L] | MIC [2] [mg/L] | MIC [3] [mg/L] | MIC [4] [mg/L] | MIC [5] [mg/L] | MIC [6] [mg/L] | MIC [8] [mg/L] | MIC [9] [mg/L] | MIC [10] [mg/L] | LD50 [11] [mg/kg] | MIC [12] [mg/L] | MIC [13] [mg/L] | MIC [15] [mg/L] | MIC [16] [mg/L] | MIC [17] [mg/L] | MIC [18] [mg/L] | ED50 [19] [mg/kg] | ED50 [20, 31] [mg/kg] | ED50 [20, 32] [mg/kg] | ED50 [21] [mg/kg] | further results |
| --- | --- | --- | --- | --- | --- | --- | --- | --- | --- | --- | --- | --- | --- | --- | --- | --- | --- | --- | --- | --- | --- |
| CN1COc2c(N3CCC(N)C3)c(F)cc3c(=O)c(C(=O)O)cn1c23 (centres unmarked) [Example 30, 10-(3-amino-1-pyrrolidinyl)-9-fluoro-3-methyl-7-oxo-2,3-dihydro-7H-pyrido[3,2,1-ij]-1,3,4-benzoxadiazine-6-carboxylic acid] | 1.56 (≈ 4.48 µM) | 0.0065 (≈ 0.0187 µM) | 0.05 (≈ 0.144 µM) | 0.013 (≈ 0.0373 µM) | 0.39 (≈ 1.12 µM) | 0.1 (≈ 0.287 µM) | 0.013 (≈ 0.0373 µM) | 0.0065 (≈ 0.0187 µM) | 0.05 (≈ 0.144 µM) | > 2000 | 0.1 (≈ 0.287 µM) | 0.013 (≈ 0.0373 µM) | 1.56 (≈ 4.48 µM) | 1.56 (≈ 4.48 µM) | 0.2 (≈ 0.574 µM) | 0.2 (≈ 0.574 µM) | 57 | 0.62 | 0.1 | 65.9 | MIC ([7]; Staphylococcus aureus, NR2855, read-out: minimum inhibitory concentration (MIC)): 0.39 mg/L (≈ 1.12 µM); MIC ([14]; Staphylococcus aureus FDA 209P JC-1, aerobic, agar dilution): 0.05 mg/L (≈ 0.144 µM); MIC [22]: 0.2 mg/L (≈ 0.574 µM); MIC [23]: 0.025 mg/L (≈ 0.0718 µM); MIC [24]: 0.0065 mg/L (≈ 0.0187 µM); MIC [25]: 0.78 mg/L (≈ 2.24 µM); MIC [26]: 0.013 mg/L (≈ 0.0373 µM); MIC [27]: 0.78 mg/L (≈ 2.24 µM); MIC [28]: 0.0033 mg/L (≈ 0.00947 µM); MIC [29]: 0.1 mg/L (≈ 0.287 µM); MIC [30]: 0.05 mg/L (≈ 0.144 µM) |
| CN1CCN(c2c(F)cc3c(=O)c(C(=O)O)cn4c3c2OCN4C)CC1 [Example 5, 9-fluoro-3-methyl-10-(4-methyl-1-piperazinyl)-7-oxo-2,3-dihydro-7H-pyrido[3,2,1-ij]-1,3,4-benzoxadiazine-6-carboxylic acid] | 0.2 (≈ 0.552 µM) | 0.013 (≈ 0.0359 µM) | 0.2 (≈ 0.552 µM) | 0.025 (≈ 0.069 µM) | 1.56 (≈ 4.31 µM) | 0.1 (≈ 0.276 µM) | 0.013 (≈ 0.0359 µM) | 0.013 (≈ 0.0359 µM) | 0.1 (≈ 0.276 µM) | > 2000 | 0.39 (≈ 1.08 µM) | 0.1 (≈ 0.276 µM) | 3.13 (≈ 8.64 µM) | 0.39 (≈ 1.08 µM) | 0.78 (≈ 2.15 µM) | 0.39 (≈ 1.08 µM) | 13.4 | 0.11 | 0.06 | 10.3 | MIC ([7]; NR2855, Staphylococcus aureus NR 2855, aerobic, agar dilution, read-out: minimum inhibitory concentration (MIC)): 0.2 mg/L (≈ 0.552 µM); MIC ([14]; Staphylococcus aureus): 0.39 mg/L (≈ 1.08 µM); MIC [22]: 0.39 mg/L (≈ 1.08 µM); MIC [23]: 0.05 mg/L (≈ 0.138 µM); MIC [24]: 0.025 mg/L (≈ 0.069 µM); MIC [25]: 0.78 mg/L (≈ 2.15 µM); MIC [26]: 0.025 mg/L (≈ 0.069 µM); MIC [27]: 0.78 mg/L (≈ 2.15 µM); MIC [28]: 0.013 mg/L (≈ 0.0359 µM); MIC [29]: 0.39 mg/L (≈ 1.08 µM); MIC [30]: 0.2 mg/L (≈ 0.552 µM) |
